Assay results reported in patent US20210101881A1 (Ancureall Pharmaceutical (Shanghai) Co., Ltd., priority 2018, published 2021).

What follows are molecules tested against T1, CDK9/CyclinK kinase (Homo sapiens, UniProt P50750) (assay: CDK9 protein kinase activity, ADP-Glo CDK9/CyclinK kinase detection kit). Settings: read-out: IC50 of the compound for inhibiting CDK9 protein kinase activity, CDK9/CyclinK kinase.
T1 construct: purchased Promega Corporation V4105
Assay type: biochemical
Experimental: Measurement of CDK9 Protein Kinase Activity
The present compound was dissolved in DMSO (Sigma Aldrich), and the initial concentration of the compound was 1000 nM. A two-fold serial dilution was carried out. The specific operation of CDK9 kinase activity determination was carried out according to the ADP-Go™ CDK9/CyclinK kinase detection experimental procedure. […] Each test sample was tested in duplicate, and the test was repeated once. The inhibitory activity (IC50) of the compound on CDK9 protein kinase was calculated from the dose-inhibition curve of the compound.

T1 sequence (P50750 whole entry): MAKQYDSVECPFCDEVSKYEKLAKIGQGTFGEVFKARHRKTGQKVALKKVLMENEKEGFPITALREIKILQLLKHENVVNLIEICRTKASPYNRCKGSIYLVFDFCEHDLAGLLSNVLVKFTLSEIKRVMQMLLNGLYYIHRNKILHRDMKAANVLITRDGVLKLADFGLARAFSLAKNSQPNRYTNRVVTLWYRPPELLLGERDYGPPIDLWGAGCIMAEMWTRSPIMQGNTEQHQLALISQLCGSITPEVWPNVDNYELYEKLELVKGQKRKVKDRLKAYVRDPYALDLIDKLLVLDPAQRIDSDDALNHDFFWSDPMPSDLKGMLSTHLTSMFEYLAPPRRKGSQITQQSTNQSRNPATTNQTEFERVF
T1 sequence (O75909 whole entry partner): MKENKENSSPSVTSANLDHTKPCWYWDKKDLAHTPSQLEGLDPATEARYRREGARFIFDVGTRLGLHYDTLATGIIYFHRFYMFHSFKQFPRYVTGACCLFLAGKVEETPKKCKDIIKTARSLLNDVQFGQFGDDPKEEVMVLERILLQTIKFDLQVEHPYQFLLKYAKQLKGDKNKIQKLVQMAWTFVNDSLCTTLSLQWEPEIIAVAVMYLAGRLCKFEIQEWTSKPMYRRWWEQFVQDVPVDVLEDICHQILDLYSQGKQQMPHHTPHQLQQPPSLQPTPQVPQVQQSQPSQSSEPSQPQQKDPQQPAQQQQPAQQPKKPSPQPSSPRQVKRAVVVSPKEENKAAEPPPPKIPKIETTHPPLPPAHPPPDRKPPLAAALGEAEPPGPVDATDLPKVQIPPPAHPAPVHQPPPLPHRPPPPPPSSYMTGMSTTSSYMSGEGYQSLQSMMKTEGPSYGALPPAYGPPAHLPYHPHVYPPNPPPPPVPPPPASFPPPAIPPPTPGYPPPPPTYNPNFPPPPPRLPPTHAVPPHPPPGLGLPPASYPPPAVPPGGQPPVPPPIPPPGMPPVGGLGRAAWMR

Compound | IC50 [nM]
Cc1cc(Nc2ncc(F)c(-n3cc(C(N)=O)c4ccccc43)n2)ccc1N1CCNCC1 [Compound 39, 1-[5-fluoro-2-(3-methyl-4-piperazin-1-yl-phenylamino)-pyrimidin-4-yl]-1H-indole-3-carboxamide] | 1 to 10
CN1CCN(c2cccc(Nc3ncc(F)c(-n4cc(C(N)=O)c5ccccc54)n3)c2)CC1 [Compound 115, 1-{5-fluoro-2-[3-(4-methyl-piperazin-1-yl)-phenylamino]-pyrimidin-4-yl}-1H-indole-3-carboxamide] | < 1

The molecules below were run on MOLM13 cells (assay: Growth inhibition of CDK9-positive cell line MOLM13 in vitro (CCK8/MTT assay)). Settings: Homo sapiens, MOLM-13, read-out: IC50 of the compound for inhibiting cell growth, MOLM13 cells.
Assay type: cell-based, human

Compound | IC50 [nM]
Cc1cc(Nc2ncc(F)c(-n3cc(C(N)=O)c4ccccc43)n2)ccc1N1CCNCC1 [Compound 39, 1-[5-fluoro-2-(3-methyl-4-piperazin-1-yl-phenylamino)-pyrimidin-4-yl]-1H-indole-3-carboxamide] | < 1
CN1CCN(c2cccc(Nc3ncc(F)c(-n4cc(C(N)=O)c5ccccc54)n3)c2)CC1 [Compound 115, 1-{5-fluoro-2-[3-(4-methyl-piperazin-1-yl)-phenylamino]-pyrimidin-4-yl}-1H-indole-3-carboxamide] | < 1
CN1CCN(c2cccc(Nc3ncc(Cl)c(-n4cc(C(N)=O)c5ccccc54)n3)c2)CC1 [Compound 118, 1-{5-chloro-2-[3-(4-methyl-piperazin-1-yl)-phenylamino]-pyrimidin-4-yl}-1H-indole-3-carboxamide] | 1 to 10
CN1CCN(CCN(C)c2ccc(Nc3nccc(-n4cc(C(N)=O)c5ccccc54)n3)cc2)CC1 [Compound 73, 1-[2-(4-{methyl-[2-(4-methyl-piperazin-1-yl)-ethyl]-amino}-phenylamino)-pyrimidin-4-yl]-1H-indole-3-carboxamide] | 1 to 10

Same assay, conditions: Homo sapiens, MOLM-13; MOLM13 cells, cultured 3 to 6 days, CCK8; read-out: IC50 of the compound for inhibiting cell growth, MOLM13 cells

IC50 [nM] | Compound
10 to 100 | CC(=O)N1CCN(c2cccc(Nc3ncc(F)c(-n4cc(C(N)=O)c5ccccc54)n3)c2)CC1 [Compound 165, 1-{2-[3-(4-acetyl-piperazin-1-yl)-phenylamino]-5-fluoro-pyrimidin-4-yl}-1H-indole-3-carboxamide]
< 1 | CCN1CCN(c2cccc(Nc3ncc(F)c(-n4cc(C(N)=O)c5ccccc54)n3)c2)CC1 [Compound 142, 1-{2-[3-(4-ethyl-piperazin-1-yl)-phenylamino]-5-fluoro-pyrimidin-4-yl}-1H-indole-3-carboxamide]
10 to 100 | CN(CCN1CCCC1)c1ccc(Nc2ncc(F)c(-n3cc(C(N)=O)c4ccccc43)n2)cc1F [Compound 95, 1-(5-fluoro-2-{3-fluoro-4-[methyl-(2-pyrrolidin-1-yl-ethyl)-amino]-phenylamino}-pyrimidin-4-yl)-1H-indole-3-carboxamide]
100 to 1000 | Cc1cc(Nc2nccc(-n3cc(C(N)=O)c4cccnc43)n2)ccc1N1CCN(C)CC1 [Compound 136]
> 1000 | COc1ccc(Nc2nccc(-n3cc(C(N)=O)c4ccccc43)n2)cc1OC [Compound 5, 1-[2-(3,4-methoxy-phenylamino)-pyrimidin-4-yl]-1H-indole-3-carboxamide]
10 to 100 | NC(=O)c1cn(-c2nc(Nc3cccc(N4CCN(C(=O)C5CCCO5)CC4)c3)ncc2F)c2ccccc12 (stereo not shown) [Compound 158, 1-(5-fluoro-2-{3-[4-(tetrahydro-furan-2-carbonyl)-piperazin-1-yl]-phenylamino}-pyrimidin-4-yl)-1H-indole-3-carboxamide]
> 1000 | Cc1cc(C)nc(Nc2nccc(-n3cc(C(N)=O)c4ccccc43)n2)c1 [Compound 132, 1-[2-(4,6-dimethyl-pyridin-2-ylamino)-pyrimidin-4-yl]-1H-indole-3-carboxamide]
100 to 1000 | COc1ccc(Nc2nccc(-n3cc(C(N)=O)c4ccccc43)n2)cc1 [Compound 17, 1-[2-(4-methoxy-phenylamino)-pyrimidin-4-yl]-1H-indole-3-carboxamide]
10 to 100 | COc1ccc(Nc2ncc(Cl)c(-n3cc(C(N)=O)c4ccccc43)n2)cc1N1CCN(C)CC1 [Compound 122, 1-{5-chloro-2-[4-methoxy-3-(4-methyl-piperazin-1-yl)-phenylamino]-pyrimidin-4-yl}-1H-indole-3-carboxamide]
1 to 10 | COc1cc(Nc2ncc(F)c(-n3cc(C(N)=O)c4ccccc43)n2)ccc1N(C)CCN(C)C [Compound 86, 1-(2-{4-[(2-dimethylamino-ethyl)-methyl-amino]-3-methoxy-phenylamino}-5-fluoro-pyrimidin-4-yl)-1H-indole-3-carboxamide]
10 to 100 | CN(C)CCOc1cccc(Nc2nccc(-n3cc(C(N)=O)c4ccccc43)n2)c1 [Compound 129, 1-{2-[3-(2-dimethylamino-ethoxy)-phenylamino]-pyrimidin-4-yl}-1H-indole-3-carboxamide]

Second part, the molecule before the results:

Compound | IC50 [nM]
C=CC(=O)N1CCN(c2ccc(Nc3nccc(-n4cc(C(N)=O)c5ccccc54)n3)cc2C)CC1 [Compound 64, 1-{2-[4-(4-acryloyl-piperazin-1-yl)-3-methyl-phenylamino]-pyrimidin-4-yl}-1H-indole-3-carboxamide] | 10 to 100
Cc1cc(Nc2nccc(-n3cc(C(N)=O)c4ccccc43)n2)ccc1N1CCN(C)CC1 [Compound 50, 1-{2-[3-methyl-4-(4-methyl-piperazin-1-yl)-phenylamino]-pyrimidin-4-yl}-1H-indole-3-carboxamide] | 1 to 10
CN(C)CCN(C)c1ccc(Nc2nccc(-n3cc(C(N)=O)c4ccccc43)n2)c(Br)c1 [Compound 78, 1-(2-{2-bromo-4-[(2-dimethylamino-ethyl)-methyl-amino]-phenylamino}-pyrimidin-4-yl)-1H-indole-3-carboxamide] | 100 to 1000
NC(=O)c1cn(-c2ccnc(Nc3cc(F)cc(C(F)(F)F)c3)n2)c2ccccc12 [Compound 4, 1-[2-(3-fluoro-5-trifluoromethyl-phenylamino)-pyrimidin-4-yl]-1H-indole-3-carboxamide] | > 1000
Cc1cc(Nc2ncc(F)c(-n3cc(C(N)=O)c4ccccc43)n2)ccc1N(C)CCN1CCCC1 [Compound 96, 1-(5-fluoro-2-{3-methyl-4-[methyl-(2-pyrrolidin-1-yl-ethyl)-amino]-phenylamino}-pyrimidin-4-yl)-1H-indole-3-carboxamide] | 1 to 10
CN(CCN1CCCC1)c1ccc(Nc2nccc(-n3cc(C(N)=O)c4ccccc43)n2)cc1F [Compound 92, 1-(2-{3-fluoro-4-[methyl-(2-pyrrolidin-1-yl-ethyl)-amino]-phenylamino}-pyrimidin-4-yl)-1H-indole-3-carboxamide] | 100 to 1000
CN(C)CCSc1ccc(Nc2nccc(-n3cc(C(N)=O)c4ccccc43)n2)cc1 [Compound 23, 1-{2-[4-(2-dimethylamino-ethylthio)-phenylamino]-pyrimidin-4-yl}-1H-indole-3-carboxamide] | 10 to 100
NC(=O)c1cn(-c2nc(Nc3ccc(N4CCNCC4)cn3)ncc2Cl)c2ccccc12 [Compound 134, 1-[5-chloro-2-(5-piperazin-1-yl-pyridin-2-ylamino)-pyrimidin-4-yl]-1H-indole-3-carboxamide] | > 1000
CNC(=O)c1cn(-c2ccnc(Nc3ccc(N4CCNCC4)c(Cl)c3)n2)c2ccccc12 [Compound 103, 1-[2-(3-chloro-4-piperazin-1-yl-phenylamino)-pyrimidin-4-yl]-1H-indole-3-carboxmethylamide] | 100 to 1000
NC(=O)c1cn(-c2ccnc(Nc3ccc(N4CCNCC4)cc3)n2)c2cccc(F)c12 [Compound 29, 4-fluoro-1-[2-(4-piperazin-1-yl-phenylamino)-pyrimidin-4-yl]-1H-indole-3-carboxamide] | 10 to 100

Same assay, conditions: MOLM13 cells, cultured 3 to 6 days, CCK8; read-out: IC50 of the compound for inhibiting cell growth, MOLM13 cells

Compound | IC50 [nM]
CNC(=O)c1cn(-c2ccnc(Nc3cccc(N4CCN(C)CC4)c3)n2)c2ccccc12 [Compound 106, 1-{2-[3-(4-methyl-piperazin-1-yl)-phenylamino]-pyrimidin-4-yl}-1H-indole-3-carboxmethylamide] | 10 to 100
